{"source": "patent US10604523B2", "about": "“1-aryl-4-methyl-[1,2,4]triazolo[4,3-a]quinoxaline derivatives” (Janssen Pharmaceutica NV, priority 2011, dated 2020)", "key": {"[1]": {"test": "Biodistribution study of [18F]B-23", "details": "mean ± SD, n = 3", "procedure": "(§2) The biodistribution study was carried out in male Wistar rats (body weight 320-370 g) at 2 min, 10 min and 30 min post injection (p.i.) (n=3/time point). […] Blood and major organs were collected in tared tubes and weighed. The radioactivity in blood, organs and other body parts was measured using an automated gamma counter. The distribution of radioactivity in different parts of the body at different time points p.i. of the tracer was calculated and expressed as percentage of injected dose (% ID), and as standardized uptake values (SUV) for the selected organs. % ID is calculated as counts per minute (cpm) in organ/total cpm recovered. SUVs are calculated as (radioactivity in cpm in organ/weight of the organ in g)/(total counts recovered/body weight in g). For calculation of total radioactivity in blood, blood mass was assumed to be 7% of the body mass."}, "[2]": {"test": "Brain radiometabolite analysis of [18F]B-23", "type": "in vivo, rat", "method": "(§1) The metabolic stability of the tracer was studied in normal rats by determination of the relative amounts of parent tracer and radiometabolites in plasma and brain at 2 min and 10 min p.i. of the tracer. […] (n=1), blood was collected in lithium heparin containing tubes (4.5 mL LH PST tubes; BD vacutainer, BD, Franklin Lakes, USA) and stored on ice. Brain was dissected and rinsed with saline (decapitation was preferred since it was difficult to have the rat perfused already at 2 min p.i.). For the 10 min timepoint, rats (n=1) were injected with about 37 MBq of tracer and sacrificed at 10 min p.i by administering an overdose of Nembutal (CEVA Sante Animale, 200 mg/kg intraperitoneal). The rats were perfused by injection of saline into the left ventricle until the liver turned pale. During perfusion, blood was collected and stored on ice. Brain was isolated.\nFor the brain radiometabolite analysis, cerebrum and cerebellum were separated and homogenized in 3 mL and 2 mL of acetonitrile respectively, for about 3 min. A volume of 1 mL of this homogenate was diluted with an equal volume of water and 1 mL of the supernatant was filtered through a 0.22 μm filter (Millipore, Bedford, USA). About 0.5 mL of the filtrate was diluted with 0.1 mL of water and spiked with 10 μL of authentic reference material (1 mg/mL) for identification. A volume of 0.5 mL of the homogenate extracts were injected onto an HPLC system consisting of an analytical XBridge column (C18, 3.5 μm, 3 mm×100 mm, Waters) eluted with a mixture of 0.05 M sodium acetate (pH 5.5) and CH3CN (76:24 v/v) at a flow rate of 0.8 mL/min. The HPLC eluate was collected as 0.8-mL fractions (fraction collection per minute) after passing through the UV detector (254 nm), and radioactivity in the fractions was measured using an automated gamma counter. The peak corresponding to the intact tracer eluted around 10 min, the polar radiometabolite(s) around 5 min."}, "[3]": {"details": "male, Wistar, rat, in vivo", "procedure": "as §2"}, "[4]": {"test": "Plasma radiometabolite analysis of [18F]B-23", "type": "in vivo, rat", "details": "for recovered radioactivity present as intact tracer in plasma: n=1", "method": "as §1\nFor the plasma radiometabolite analysis, the blood was centrifugated for 10 min at 3000 rpm to separate the plasma. A volume of about 0.1 mL of plasma sample was isolated and spiked with about 10 μL of authentic non-radioactive reference material (1 mg/mL) for identification. The plasma was then injected onto an HPLC system consisting of a Chromolith Performance column (C18, 3 mm×100 mm, Merck) that was eluted with mixtures of 0.05 M NaOAc pH 5.5 (solvent A) and acetonitrile (solvent B). The following method was used for the analysis: isocratic elution with 100% A for 4 min at a flow rate of 0.5 mL/min, then linear gradient to 90% B by 14 min at a flow rate of 1 mL/min, and isocratic elution with a mixture of 10% A and 90% B at a flow rate of 1 mL/min until 17 min. After passing through an in-line UV detector (254 nm) and over a 3 in. NaI(Tl) scintillation detector connected to a single channel analyzer (Gabi box, Raytest, Straubenhardt Germany), the HPLC eluate was collected per minute using an automatic fraction collector. The radioactivity in all fractions was measured using an automated gamma counter. The peak corresponding to the intact tracer eluted at ˜11 min. Polar radiometabolite(s) were eluting from 1 to 3 min. Slightly more polar radiometabolites (relatively to the polarity of the intact tracer) were eluting just before the intact tracer. Faster metabolisation is observed in plasma compared to brain. At 2 min p.i., about 70% of the recovered radioactivity was present as intact tracer. Two more polar radiometabolites (M1, M3) were observed of which one (M3) was closely eluting to the intact tracer. At 10 min p.i., the presence of a large amount of a third polar metabolite (M2, also closely eluting to the parent compound) was observed which accounted for about 60% of the recovered radioactivity. At 10 min p.i., only ˜20% of the recovered radioactivity was still present as intact tracer."}, "[5]": {"test_system": "cAMP and cGMP levels in the rat brain (hippocampus and striatum)", "test": "Effect of PDE-inhibitors ex-vivo studies in rat: cAMP and cGMP levels in brain", "details": "10 mg/kg s.c., -1 h", "procedure": "Upon arrival, the animals (body weight 210-240 g) were housed in groups of 5 and fed normal chow at libitum.\nCompounds and/or solvent were administered either orally, subcutaneously or IV. […] After microwave, the rats were decapitated and the heads cooled immediately with ice cold physiological saline. […] 10 vol (w/v) of 0.1N HCl were added. The tissue was homogenized for 3 min at 30 Hz using a Tissuelyser from Qiagen.\nThe homogenate was transferred into an Eppendorf tube (1.5 ml) and after centrifugation for 15 min at 1600 g in a pre-cooled (4C) Eppendorf centrifuge, the supernatant was collected and stored at −80° C. until analysis.\nThe cAMP and cGMP levels were measured in the rat brain (hippocampus and striatum) to establish in vivo target engagement and central pharmacological effect of PDE2 inhibition."}, "[6]": {"biological_target": "T1, Rat recombinant PDE10A (rPDE10A2) (Rattus norvegicus, UniProt Q9QYJ6)", "T1 construct": "made in house; host or cells: Sf9 insect cells (baculovirus)", "T1 sequence (Q9QYJ6 1-794)": "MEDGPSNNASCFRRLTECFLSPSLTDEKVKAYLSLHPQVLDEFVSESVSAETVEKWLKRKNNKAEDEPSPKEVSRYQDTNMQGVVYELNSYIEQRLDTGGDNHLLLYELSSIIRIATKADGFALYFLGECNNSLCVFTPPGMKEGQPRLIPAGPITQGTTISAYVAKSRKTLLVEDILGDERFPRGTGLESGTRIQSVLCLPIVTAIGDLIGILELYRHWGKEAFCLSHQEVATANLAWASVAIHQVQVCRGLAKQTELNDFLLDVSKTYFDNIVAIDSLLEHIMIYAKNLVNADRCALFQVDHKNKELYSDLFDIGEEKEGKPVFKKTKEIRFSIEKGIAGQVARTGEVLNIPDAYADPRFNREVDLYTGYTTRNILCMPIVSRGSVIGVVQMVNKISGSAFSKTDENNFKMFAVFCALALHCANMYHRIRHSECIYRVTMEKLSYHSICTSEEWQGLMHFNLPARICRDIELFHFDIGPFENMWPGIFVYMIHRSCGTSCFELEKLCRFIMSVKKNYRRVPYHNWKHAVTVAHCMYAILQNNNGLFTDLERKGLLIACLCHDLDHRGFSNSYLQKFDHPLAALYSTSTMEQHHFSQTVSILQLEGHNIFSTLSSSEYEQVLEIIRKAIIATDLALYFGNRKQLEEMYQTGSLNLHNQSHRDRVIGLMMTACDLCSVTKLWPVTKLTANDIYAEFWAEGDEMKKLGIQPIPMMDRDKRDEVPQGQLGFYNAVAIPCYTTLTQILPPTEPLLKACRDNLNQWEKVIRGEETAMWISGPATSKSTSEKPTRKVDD", "test": "In vitro assay PDE10A (SPA, 3H-cAMP)", "type": "biochemical", "details": "-log IC50 expressed in mol/L; rPDE10A2, 60 nM cAMP; read-out: PIC50 PDE10 (converted)"}}, "note": "Read-outs that look alike come from different tables or passages of the source."}
{"smiles": "Cc1nc2ccc(CN3CCOCC3)cc2n2c(-c3c([18F])cccc3Cl)nnc12", "note": "[[^18F]B-23, 1-(2-Chloro-6-[^18F]fluorophenyl)-4-methyl-8-(morpholin-4-ylmethyl)[1,2,4]triazolo[4,3-a]quinoxaline]", "values": [{"measurement": "SUV Blood", "setting": "[1]; 2 min p.i.", "value": "0.96 ± 0.05"}, {"measurement": "SUV Cerebellum", "setting": "[1]; 2 min p.i.", "value": "1.22 ± 0.23"}, {"measurement": "SUV Cortex", "setting": "[1]; 2 min p.i.", "value": "2.36 ± 0.48"}, {"measurement": "SUV Hippocampus", "setting": "[1]; 2 min p.i.", "value": "1.87 ± 0.22"}, {"measurement": "SUV Rest of cerebrum", "setting": "[1]; 2 min p.i.", "value": "2.63 ± 0.41"}, {"measurement": "SUV Striatum", "setting": "[1]; 2 min p.i.", "value": "4.36 ± 0.42"}, {"measurement": "SUV Blood", "setting": "[1]; 10 min p.i.", "value": "0.90 ± 0.08"}, {"measurement": "SUV Cerebellum", "setting": "[1]; 10 min p.i.", "value": "0.27 ± 0.02"}, {"measurement": "SUV Cortex", "setting": "[1]; 10 min p.i.", "value": "0.53 ± 0.02"}, {"measurement": "SUV Hippocampus", "setting": "[1]; 10 min p.i.", "value": "0.33 ± 0.04"}, {"measurement": "SUV Rest of cerebrum", "setting": "[1]; 10 min p.i.", "value": "0.57 ± 0.02"}, {"measurement": "SUV Striatum", "setting": "[1]; 10 min p.i.", "value": "1.77 ± 0.08"}, {"measurement": "SUV Blood", "setting": "[1]; 30 min p.i.", "value": "0.59 ± 0.08"}, {"measurement": "SUV Cerebellum", "setting": "[1]; 30 min p.i.", "value": "0.12 ± 0.04"}, {"measurement": "SUV Cortex", "setting": "[1]; 30 min p.i.", "value": "0.15 ± 0.04"}, {"measurement": "SUV Hippocampus", "setting": "[1]; 30 min p.i.", "value": "0.14 ± 0.04"}, {"measurement": "SUV Rest of cerebrum", "setting": "[1]; 30 min p.i.", "value": "0.22 ± 0.08"}, {"measurement": "SUV Striatum", "setting": "[1]; 30 min p.i.", "value": "0.61 ± 0.20"}, {"measurement": "apolar radiometabolites in brain", "setting": "[2]; 2 and 10 min p.i.", "value": "No apolar radiometabolites were detected"}, {"measurement": "intact tracer in cerebrum and cerebellum", "setting": "[2]; 2 min p.i., n=1", "value": "almost all of the recovered radioactivity in cerebrum and in cerebellum was present as intact tracer"}, {"measurement": "% of intact tracer in cerebellum", "setting": "[2]; 10 min p.i., n=1", "value": 82, "unit": "%"}, {"measurement": "% of the ID in the cerebellum", "setting": "[3]; 2 min", "value": "~0.1", "unit": "%"}, {"measurement": "% of the ID in the cerebrum", "setting": "[3]; 2 min", "value": "~1.0", "unit": "%"}, {"measurement": "% of the injected dose present in the blood", "setting": "[3]; 2 min", "value": "about 6.7%"}, {"measurement": "total brain uptake of the tracer (% ID)", "setting": "[3]; 2 min", "value": "~1.2", "unit": "%"}, {"measurement": "% ID in the brain", "setting": "[3]; 10 min", "value": 0.2, "unit": "%"}, {"measurement": "% ID in the brain", "setting": "[3]; 30 min", "value": 0.1, "unit": "% ID"}, {"measurement": "% ID in the urine and the kidneys", "setting": "[3]; 30 min", "value": 19, "unit": "% ID"}, {"measurement": "% of ID present in the liver and intestines", "setting": "[3]; 30 min", "value": 49, "unit": "%"}, {"measurement": "% of the injected dose present in the blood", "setting": "[3]; 30 min", "value": 4.1, "unit": "%"}, {"measurement": "apolar radiometabolites in plasma", "setting": "[4]; 2 and 10 min p.i.", "value": "No apolar radiometabolites were detected"}, {"measurement": "recovered radioactivity present as intact tracer in plasma", "setting": "[4]; 2 min p.i.", "value": "about 70%"}, {"measurement": "recovered radioactivity present as intact tracer in plasma", "setting": "[4]; 10 min p.i.", "value": "~20", "unit": "%"}]}
{"smiles": "CCCCOc1ccc(Cl)c(-c2nnc3c(C)nc4ccc(CN(C)C)cc4n23)c1", "note": "[Compound B-88]", "values": [{"measurement": "Hippocampus cAMP (% of Control)", "setting": "[5]", "value": "117 ± 20 % of Control"}, {"measurement": "Hippocampus cGMP (% of Control)", "setting": "[5]", "value": "150 ± 42 % of Control"}, {"measurement": "Striatum cAMP (% of Control)", "setting": "[5]", "value": "88 ± 12 % of Control"}, {"measurement": "Striatum cGMP (% of Control)", "setting": "[5]", "value": "121 ± 20 % of Control"}, {"measurement": "IC50", "setting": "[6]", "value": 2140, "unit": "nM"}]}
